Data: US20170313828A1, “IN SITU-FORMING OF DENDRIMER HYDROGELS USING MICHAEL-ADDITION REACTION” (Virginia Commonwealth University, priority 2016, published 2017)

Assay: In vitro 5-FU release kinetics
Format: physicochemical
Details: from hydrogel of 1 wt % PAMAM G5-(NH2)128 and PEG diacrylate575 (FIG. 9)
Method: In Vitro Drug Release Kinetics. Drug release was performed on 5-FU loaded into DH-G5-0.5% (5-FU/DH-G5-0.5%). Briefly, Free 5-FU (300 μg) in PBS or DH-G5-0.5% containing 300 μg of 5-FU was transferred to dialysis bags (MWCO=500-1000 Da) and suspended in 30 mL of PBS in 50-mL centrifuge tubes. The tubes were maintained at 37° C. At predetermined time intervals up to 24 h, 1 mL of medium outside the dialysis bag was withdrawn, and the amount of drug released into the medium was analyzed on HPLC against a standard curve of 5-FU. After each sampling, 1 mL of fresh PBS was added to maintain a constant volume and sink condition. All experiments were performed in triplicate.

## O=c1[nH]cc(F)c(=O)[nH]1 [fluorouracil]
  drug released in the first 3 hours: about 70%
